Measurements reported in patent US20220273658A1, “SMALL MOLECULE LIVER X RECEPTOR MODULATORS AND USES THEREOF” (University of Houston System, priority 2019, published 2022).

Experiments:
[1] = test system: LXR ligand-binding domain; experiment: TR-FRET assay of co-activator and co-repressor peptide recruitment; assay type: biochemical
Method: (§1) To elucidate mechanisms of inverse agonism by the novel ligands, TR-FRET experiments were conducted to determine the effects of 1E5 and 3A4 on the recruitment of NR co-activators and co-repressors. […] In addition to their functions as inverse agonists, extended treatments with 1E5 and 3A4 also destabilized or decreased LXR proteins.
(§2) The synthesis and characterization of KD-01-39, a derivative of 3A4, have not been described previously.

LXR-LBD = experiment: differential scanning fluorimetry; assay type: binding
Description: as §2

KPC tumor cells = experiment: growth of KPC tumor cells from mouse model of PDAC; assay type: cell-based
Description: The effects of the ligands and derivatives on the growth of PDAC cells were further validated by cell counting and clonogenic assays.

MDA-MB-231 cells = experiment: breast cancer cell proliferation; assay type: cell-based
Description: (§3) The inhibitory effects of LXR ligands in breast cancer cells have been shown previously. […] The observed decreases in LXR protein levels were not affected by proteasome inhibitor MG132.

MCF-7 cells = experiment: breast cancer cell proliferation; assay type: cell-based
Description: as §3

HPNE cells = experiment: growth of non-transformed pancreatic epithelial cells (WST screen; FIG. 32D); assay type: cell-based, human; details: WST screen
Method: (§4) The initial identification and subsequent characterization of the two novel LXR ligands and their derivative compounds was carried out in screens in three human pancreatic cancer cell and one non-transformed human pancreatic epithelial cell line in three or more replicate experiments for each cell line using the WST tetrazolium salt reduction assays.
as §2

LXR proteins = target: T1, LXR proteins (Homo sapiens, UniProt P55055); experiment: LXR protein levels after long-term treatment of pancreatic cancer cells; assay type: cell-based; details: long-term treatments
T1 construct: expression of LXR proteins in different pancreatic cancer cell lines following long-term treatments; endogenous in cells; host or cells: pancreatic cancer cell lines (BxPC-3, MIA PaCa-2, PANC-1 named elsewhere)
T1 sequence (P55055 whole entry): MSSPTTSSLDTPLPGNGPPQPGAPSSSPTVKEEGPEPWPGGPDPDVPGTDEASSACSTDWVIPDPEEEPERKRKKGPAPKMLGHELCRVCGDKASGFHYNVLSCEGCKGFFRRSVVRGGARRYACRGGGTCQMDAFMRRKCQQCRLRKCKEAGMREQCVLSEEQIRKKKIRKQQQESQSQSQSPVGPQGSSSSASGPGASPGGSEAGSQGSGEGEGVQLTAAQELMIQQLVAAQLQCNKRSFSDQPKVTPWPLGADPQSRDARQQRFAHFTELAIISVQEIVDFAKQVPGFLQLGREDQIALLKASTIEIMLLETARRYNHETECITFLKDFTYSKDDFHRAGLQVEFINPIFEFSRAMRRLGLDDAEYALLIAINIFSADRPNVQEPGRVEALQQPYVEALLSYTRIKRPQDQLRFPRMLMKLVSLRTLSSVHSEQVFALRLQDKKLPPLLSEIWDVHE
Method: as §1

PDAC cell lines = experiment: tetrazolium salt reduction (WST) assay in PDAC cell lines; assay type: cell-based, human; details: WST screen, three human pancreatic cancer cell lines
Method: To determine the effects of LXR ligands on PDAC cell proliferation, cells were treated with synthetic LXR agonist GW3965 and live cells were quantified using trypan blue exclusion assays. […] FIGS. 8A, 8B, and 8C show dose-dependent decreases in cell proliferation in BxPC-3, Mia-PaCa-2, and PANC-1, respectively upon treatment with increasing GW3965 concentrations. […] Clonogenic assays were also employed to evaluate the effects of long-term LXR ligand treatment on cell proliferation and colony formation. […] These findings indicate that LXRs are involved in PDAC cell proliferation and targeting LXRs with ligands perturb their normal functions in cell proliferation.
as §4

PDAC cells = experiment: pro-apoptotic caspase cleavage analysis; assay type: cell-based, human
Method: (§5) To determine if 1E5 and 3A4 can induce apoptosis, PDAC cells were treated with the LXR ligands and subjected to pro-apoptotic caspase cleavage analysis. […] Metabolomic profiling following treatments with the two ligands indicated the activation of two distinct cell death mechanisms. Ferroptosis is a non-apoptotic form of cell death which is characterized by accumulation of lipid peroxides by loss of glutathione peroxidase 4 (GPX4) activity. It can also be induced by accumulation of intracellular iron and depletion of reduced glutathione (GSH). GPX4 is an anti-oxidant enzyme involved in conversion of PUFA peroxides to PUFA alcohols. GSH is a critical cofactor of GPX4 and acts as a reducing agent to reduce the lipid peroxides. Therefore, direct inhibition of GPX4 activity or reduction in GSH levels trigger ferroptosis. The second mechanism of inducing ferroptosis is accumulation of polyunsaturated fatty acids (PUFAs) in cells. Studies have shown that PUFAs are the most susceptible lipids to peroxidation.
Accumulation of C18 ceramides in the mitochondria leads to the recruitment of auto phagosomes in mitochondria and induces LC3-ceramide dependent lethal mitophagy. […] Darkened circles indicate increases and the size of the circle corresponds to the significance of changes.

human PDAC cell lines = experiment: cell viability response curves with increasing concentrations; assay type: cell-based
[2] = test system: LXR target genes SREBF1c, ABCA1, and ABCG1; experiment: expression of LXR target genes in pancreatic cancer cell lines; assay type: cell-based, human
Description: To characterize the activity of the newly discovered ligands, the expression of LXR target genes SREBF1c, ABCA1, and ABCG1 was examined following treatment with vehicle, synthetic agonist GW3965, and Compounds 1E5 and 3A4. […] Basal expression of SREBF1c, the canonical LXR target gene involved in the regulation of glucose and lipid metabolism, was disrupted by the addition of novel LXR ligands, whereas their expression was induced following treatment with synthetic agonist GW3965 in all three pancreatic cancer cell lines tested, whereas the effects on ABCA1 and ABCG1 varied between the two novel ligands and across the cell lines.
as §1

pancreatic cancer cells = experiment: metabolomic analysis using mass spectroscopy in pancreatic cancer cells; assay type: cell-based, human; details: PDAC cells
Method: To further characterize the mechanisms of action of novel LXR modulators 1E5 and 3A4, metabolomic and transcriptomic analysis of pancreatic cancer cells were conducted in response to treatment. […] PDAC tumors have altered metabolism to support its growth and survival. Previous studies have reported that Kras upregulates the non-canonical use of glutamine to maintain NADPH/NADP+ ratio which in turn regulates redox homeostasis. This unconventional use of glutamine by PDAC cells fuel cancer cell proliferation and survival. Glutamine metabolism in PDAC has two unique functions: 1. Glutamine-derived Glutamate is used for glutathione (GSH) biosynthesis. 2. Glutamine facilitates generation of reducing equivalents in the form of NADPH. In PDAC mitochondria, glutamine is converted to glutamate by glutaminase enzyme (GLS1). This glutamine derived glutamate is conventionally converted to alpha-ketoglutarate by glutamate dehydrogenase (GLUD1) to fuel citric acid cycle. However, in PDAC cells glutamate is converted to aspartate in cytosol which is converted to malic acid and NADPH is produced during this process. This process is essential to maintain redox homeostasis in the tumor. However, this non-canonical use of glutamine is dispensable in non-malignant cells. Therefore, targeting GLS1 to decrease the bioavailability of glutamate to act as source of nitrogen and carbon for the synthesis of amino acids and nucleic acids is a viable strategy to target PDAC tumors. […] The effect of 1E5 is similar to BPTES, a potent GLS1 inhibitor.
TCA cycle intermediates act as anaplerotic substrate for gluconeogenesis and lipogenesis. […] GOT2 converts glutamine-derived glutamate to alpha-KG. During this process oxaloacetate is converted to aspartate which is required to maintain redox homeostasis. Studies have shown that inhibition of GOT2 in PDAC promotes senescence.
as §5
Expression profiles of ferroptosis genes in RNAseq data following 1E5 treatment were also consistent with its pro-ferroptotic actions. […] Polyamines are amino-acid derived polycationic alkylamines that are required for the growth of cells. SAT1 catalyzes the acetylation of spermidine and spermine to form N-acetylspermidine and N-acetylspermine respectively. […] SAT1 induces ferroptosis by upregulating the peroxidation of PUFA arachidonic acid. Ceramides are sphingolipids consisting of sphingosine and fatty acid acyl chain. Cellular stress leads to upregulation of ceramide synthesis which mediate caspase-dependent apoptosis. Accumulation of ceramides/hexosylceramides in the mitochondria leads to the formation of channel like structures in the mitochondrial outer membrane which increases the permeability of pro-apoptotic proteins such as cytochrome c. ER stress is also known to activate de-novo synthesis of ceramides and induce apoptosis by increasing the flow of Ca ions and upregulating the unfolded protein stress response. […]

[3] = test system: LXR proteins in MCF-7 cells; experiment: western blot of LXR protein levels; assay type: cell-based
Description: as §3

LXR in MDA-MB-231 cells = experiment: western blot of LXR protein levels; assay type: cell-based
Description: as §3

MCF-7 = experiment: expression of LXR target genes in breast cancer cells; assay type: cell-based; details: MCF-7, ER-positive
Description: as §3

MDA-MB-231 = experiment: as above; assay type: cell-based; details: MDA-MB-231, triple-negative
Description: as §3

COc1cc(OC)cc(C(=O)N2CCN(c3ccccc3C)CC2)c1 [Compound 3A4, 1-(3,5-dimethoxybenzoyl)-4-(2-methylphenyl)piperazine]
co-activator peptide binding to LXR ligand-binding domain ([1]; co-activator (D22) peptide): did not affect co-activator peptide binding
binding of NCOR and SMRT co-repressor peptides ([1]; co-repressor (NCOR and SMRT-ID2) peptides): increased the binding
LXR-LBD structure and dye dissociation with increasing temperature (LXR-LBD): disrupted the LBD structure
growth of KPC tumor cells (KPC tumor cells): blocked the growth
proliferation of MDA-MB-231 cells (MDA-MB-231 cells): inhibited
proliferation of MCF-7 cells (MCF-7 cells): inhibited the proliferation
activity against non-transformed HPNE cells (HPNE cells): little activity
LXR protein levels (LXR proteins): decreased LXR protein levels
human pancreatic cancer cells growth (PDAC cell lines): effective in inhibiting human pancreatic cancer cells growth
pro-apoptotic caspase cleavage (PDAC cells): induced pro-apoptotic caspase cleavage
apoptosis (PDAC cells; PDAC cells): induces caspase-dependent apoptosis
potency in response curves compared to GW3965 (human PDAC cell lines): more potent activity as compared to GW3965
basal expression of SREBF1c ([2]; all three pancreatic cancer cell lines): disrupted
expression of FASN, SCD, and ACC ([2]; pancreatic cancer cells): decreased the expression
expression of LXR target genes ([2]; three pancreatic cancer cell lines): reducing the expression of LXR target genes
levels of C18 and C16 ceramides and hexosylceramides (pancreatic cancer cells): significantly upregulates
LXR protein levels (degradation) [3]: act as degraders of LXR proteins
LXR protein levels (degradation) (LXR in MDA-MB-231 cells): only 1E5 degraded LXR
expression of LXR target genes (MCF-7): generally down-regulated
expression of LXR target genes (MDA-MB-231): generally down-regulated
